Laboratory results taken from patent US20260146029A1, “METHODS FOR THE TREATMENT OR PROPHYLAXIS OF ENDOMETRIOSIS” (Gesynta Pharma AB, priority 2022, published 2026).
Values joined by “and” are separate entries in the source; they are usually repeats but may differ in a detail not shown here. Equal values may be shown once.

Columns and labels:
[1] = system: Marmoset monkeys (Callithrix jacchus), established endometriosis; assay: Colour Doppler ultrasonic scanning of blood flow (bladder area, reproductive tract area); format: in vivo; design: key to Individual data on blood flow bladder / Individual data on blood flow repro tract: 0=blood flow not visible; 1=weak blood flow; 2=medium blood flow; 3=massive blood flow; conditions: for Individual data on blood flow bladder / Individual data on blood flow repro tract: individual animals 1-8 (one line each), 6.67 mg/kg; for Individual data on blood flow bladder / Individual data on blood flow repro tract / Blood flow bladder, median score / Blood flow repro tract, median score: oral 6.67 mg/kg twice/day; for Blood flow bladder, median score / Blood flow repro tract, median score: median of 8 animals, scale 0-3, baseline median 2
Method: (§1) The substance as depicted below (prepared according to the procedure in WO 2012/022793 A1) was orally administered (as the hydrogen sulphate salt thereof) for 6 weeks to common marmoset monkeys at a dose of 6.67 mg/kg twice/day (calculated based on the free base, with the actual weight of compound administered calculated as required for the hydrogen sulphate salt).
(§2) The age of the marmosets ranged between 3 and 16 years. All animals were female and had established endometriosis over years. Induction of endometriosis was performed as described in Einspanier et al., Mol Human Reprod., 12(5), 291-9 (2006).
Colour Doppler ultrasonic scanning was done before and 3 times during the treatment period to follow blood flow. Colour doppler scanning was carried out as described by Einspanier (ibid).
Colour Doppler ultrasonic scanning was performed to measure blood flow in the reproductive tract (uterus and ovaries) area as well as in the bladder area.
Individual blood flow measurements are provided in Table 1, 0=blood flow not visible, 1=weak blood flow, 2=medium blood flow and 3=massive blood flow.

[2] = system: Marmoset monkeys (Callithrix jacchus), established endometriosis; assay: Laparotomy assessment of endometriotic lesions (number and size of foci); format: in vivo
Method: as §1, §2
Laparotomy was carried out twice, seven weeks before treatment start of treatment and immediately after end of treatment. There was a duration of at least 3 months between each laparotomy.
After pre-medication with Göttinger Mischung M II (Ketamin, Xylazin and Atropin mixture), an inhalation anaesthesia with Isofluran was carried out which last in average 60 minutes. The abdomen was opened beside line alba for 1 cm range to visualise the reproductive tract and bladder. The endometriotic lesions were characterized and documented in pictures. During the second laparoptomy samples from the lesions were collected. Postoperative care of the animals was carried out as required by local law. The collected tissue samples were fixed in paraformaldehyde and embedded in paraffin or stored at −80° C. Before abdominal suture, all organs were replaced in their place. All females were separated from their males for some hours due to medical reasons and obtained antibiotics for some days.
Laparotomy analysis was performed to assess endometriotic lesions.

[3] = system: Marmoset monkeys (Callithrix jacchus), established endometriosis; assay: Feeding tree behaviour test; format: in vivo; conditions: during treatment, all animals
From the text: (§3) Different behavioural test systems were used to study pain and discomfort, social comfort, memory, learning and activity were set up. All primates used in the study were familiar with the test-systems (for a period of more than 6 months) to confirm that the obtained results are related to the medication and not a learning effect over time.
(§4) Two test systems were used in the study as described in Arnold et al., J Med Primatol., 40, 317-326 (2011). • 1. Feeding tree • 2. Wisconsin General Testing apparatus (WGTA) Before and during the study documentation of social interaction, such as grooming, were performed.
The feeding tree was to test movement activity associated with pain, discomfort and/or distress. The feeding tree offers food at different positions to reach, which requires different levels of movement. If an animal has discomfort, distress or abdominal pain it will not search for food at upper areas or at all. Moreover, systematic search is reduced if memory is impaired. In the setting, each primate had to empty every reward-containing hideouts within 5 minutes to be fully successful. The response of the 8 animals was graded before, during and after treatment on a scale of 0-4 indicting the number of hideouts emptied within 5 minutes.

[4] = system: Marmoset monkeys (Callithrix jacchus), established endometriosis; assay: Wisconsin General Testing Apparatus (WGTA) memory and learning test; format: in vivo; conditions: during the treatment, all females
From the text: as §3, §4
Memory and learning of the primates were tested. All animals are train-rewarded for the WGTA. The animal, which is sitting in the transport box, is either trained for special figures or places, which hide the reward. The observer can watch the behaviour of the animal, but the animal cannot see the observer.
The 8 animals were tested in the WGTA for memory by remembering either the figure or location of the hidden reward. Wellbeing of a primate is associated with willingness to search for food, which is also included by this test system. The animals have to find the reward underneath the three different figures three times within 5 minutes. Each animal is either trained for the location of the figure or figure itself.

[5] = system: Marmoset monkeys (Callithrix jacchus), established endometriosis; assay: Social interaction (grooming) observation; format: in vivo; conditions: during treatment compared to before treatment, all animals
Method: as §4
The documentation of grooming was carried out by daytime observation. These behaviour observations give information about wellbeing, while grooming is a marker for positive social activity. The social grooming was documented 1 h after breakfast and 1 h after lunch by observing the couples each time for 10 minutes. For each animal, the number of grooming interactions in the observed period was recorded.

[6] = system: Marmoset monkeys (Callithrix jacchus), established endometriosis; assay: General health status: clinical signs and blood chemistry; format: in vivo; conditions: oral 6.67 mg/kg twice/day for 6 weeks
Method: (§5) All animals were weighed weekly before and during the treatment. Health body checks including clinical signs as well as blood chemistry analysis were carried out in a regular manner by the responsible vet.

[7] = system: Marmoset monkeys (Callithrix jacchus), established endometriosis; assay: Reproductive cycle monitoring by serum progesterone; format: in vivo; conditions: after treatment
Method: For analysis of serum progesterone concentration to monitor the reproductive cycle, blood was collected weekly before and during treatment. Serum was separated from blood samples by centrifugation (2600 rpm 10 min, Eppendorf Centrifuge 5810 R) within two hours of sampling and stored at minus 80° C.

[8] = Body weight (weighed weekly); format: in vivo, Marmoset monkeys (Callithrix jacchus); conditions: during the treatment period; oral 6.67 mg/kg twice/day for 6 weeks
Method: as §5

[9] = Week 7 (EoT), individual animals 1-8 (one line each), oral 6.67 mg/kg twice/day for 6 weeks
[10] = Week 7 (EoT), individual animals 1-8 (one line each), oral 6.67 mg/kg twice/day for 6 weeks, 6.67 mg/kg

Cn1c(Nc2c(Cl)ccc(CNC(=O)C(C)(C)C)c2Cl)nc2cc(C(=O)N[C@H]3CC[C@H](C(F)(F)F)CC3)c(OCC(F)F)cc21 [compound of formula I, 2-{2,6-dichloro-3-[(2,2-dimethyl-propionylamino)-methyl]-phenylamino}-6-(2,2-difluoroethoxy)-1-methyl-1H-benzoimidazole-5-carboxylic acid (trans-4-trifluoromethylcyclohexyl)-amide]
Individual data on blood flow bladder ([1]; Week 1): 3 (3×) and 2 (3×) and 1 (2×)
Individual data on blood flow repro tract ([1]; Week 1): 3 and 2 (5×) and 1 (2×)
Blood flow bladder, median score ([1]; Week 1): 2
Blood flow repro tract, median score ([1]; Week 1): 2
Individual data on blood flow bladder ([1]; Week 4): 3 and 2 (3×) and 1 (4×)
Individual data on blood flow repro tract ([1]; Week 4): 2 (3×) and 1 (4×) and 0
Blood flow bladder, median score ([1]; Week 4): 1.5
Blood flow repro tract, median score ([1]; Week 4): 1
Individual data on blood flow bladder ([1]; Week 6): 2 and 1 (7×)
Individual data on blood flow repro tract ([1]; Week 6): 2 (3×) and 1 (3×) and 0 (2×)
Blood flow in reproductive tract (uterus and ovaries) area and bladder area, result in words ([1]; all animals, both areas, oral 6.67 mg/kg twice/day for 6 weeks): Decreased blood flow
Number of endometriotic lesions repro tract, lesion size 2-4 mm [2, 9]: 0
Number of endometriotic lesions repro tract, lesion size >4 mm [2, 9]: 0
Number of endometriotic lesions on the bladder, Total [2, 10]: 4 (2×) and 14 and 24 and 7 and 12 and 5 and 10
Number of endometriotic lesions on the bladder, lesion size 2-4 mm [2, 10]: 0 (6×) and 3 and 5
Number of endometriotic lesions on the bladder, lesion size <2 mm [2, 10]: 0 (4×) and 5 and 12 and 4 and 7
Number of endometriotic lesions on the bladder, lesion size >4 mm [2, 10]: 0 (6×) and 3 and 2
Number of endometriotic lesions on the bladder, lesion size s.p. (visible but not measurable) [2, 10]: 4 and 2 and 5 (2×) and 7 and 0 and 12 and 3
Number of endometriotic lesions repro tract, Total [2, 10]: 0 (2×) and 3 (2×) and 8 and 2 (2×) and 4
Number of endometriotic lesions repro tract, lesion size <2 mm [2, 10]: 0 (5×) and 2 (2×) and 4
Number of endometriotic lesions repro tract, lesion size s.p. (visible but not measurable) [2, 10]: 0 (2×) and 1 and 4 and 3 and 2 (3×)
Endometric foci at laparotomy, result in words ([2]; all animals, all sizes of foci affected, after 6 weeks of treatment): Pronounced reduction
Success rate in the feeding tree (hideouts emptied within 5 minutes, scale 0-4) [3]: improved
WGTA success rate of correct figure or location within time [4]: increased success rate
Grooming interactions [5]: increased
Blood laboratory parameters ([6]; before and after treatment): in the physiological range
Clinical signs, general health behaviour of the study animals ([6]; during the study period, 8 female marmosets): no changes
Animals showing irregular cycles ([7]; of 8 animals, before therapy 5 irregular cycles and 1 no activity): 2 animals
Animals showing ovarian cycle activity ([7]; before therapy 2 of 8 animals showed ovarian cycle activity): 6 out of 8
Change in body weight [8]: no significant change
